Laboratory results from patent publication US20110178053A1, “AZACARBOLINE DERIVATIVES, PREPARATION METHOD THEREOF AND THERAPEUTIC USE OF SAME” (SANOFI-AVENTIS, priority 2008, published 2011).
Like-named read-outs stand apart in the source and are kept apart here.

How the values were obtained:
EOL-1 = test: Cell viability assay (CellTiter-Blue), EOL-1; type: cell-based; details: Homo sapiens, EOL1, read-out: EC50 EOL-1 μM (lymphoma)
Description: (§1) The representative compounds of the invention are also screened as regards their effects on cell proliferation and viability using a variety of human tumour cell lines, which are representative of various pathological indications. These cell lines include: • Models of haematological cancers: • TF-1 (acute myelogenic leukaemia; AML M6 at the time of diagnosis); • KG-1 (AML; erythroleukaemia evolving into AML); • KG-1a (AML; sub-clone derived from immature KG-1); • EOL-1 (AML; eosinophilic leukaemia); • PL-21 (AML; M3); • ML-2 (AML; T-NHL evolving into T-ALL evolving into AML M4); • HL-60 (AML, M3); • Kasumi-1 (AML); • GDM-1 (AML); • K-562 (CML—chronic myelogenic leukaemia; blastic crisis); • JURL-MK1 (CML; blastic crisis); • DND-41 (T-ALL—-cell acute lymphoblastic leukaemia); • Jurkat (T-ALL); NALM-6 (B-ALL—B-cell ALL); • CEM (ALL; lymphosarcoma evolving into ALL); • Jeko-1 (B-NHL—B-cell non-Hodgkin lymphoma; mantle-cell lymphoma derived from a variant with large cells as a leukaemic transformation); • WSU-DLCL2 (B-NHL; large B-cell diffuse lymphoma); • RL (B-NHL; undifferentiated diffuse); • OCI-Ly10 (B-NHL); • DoHH-2 (B-NHL); • RPMI-8226 (MM—multiple myeloma); • JVM-2 (B-CLL—B-cell chronic lymphocytic leukaemia); and • JVM-3 (B-CLL) • MV4-11 (AML) • MOLM13 (AML). • Solid tumour models: • HCT-116 (bowel cancer); • HT-29 (bowel cancer); • HC-15 (bowel cancer); • H460 (lung cancer; non-small-cell lung cancer); • A375 (melanoma); • B16F10 (melanoma); • MDA-A1 (breast cancer); • MDA-MB231 (breast cancer); • MDA-MB231 adr (breast cancer); • PANC-1 (pancreatic cancer); and • PC-3 (prostate cancer).
(§2) In order to measure the viability, the tumour cells are incubated in a 96-well or 384-well format for 48, 72 or 96 hours, preferably 72 hours, with a compound of the invention at dilutions of a factor 3 with, in general, nine doses in total, the highest dose being equal to 10 μM or 30 μM. The cell viability is evaluated by adding CellTiter-Blue® (Promega, Madison, Wis., United States) for 4 hours and end-point readings are taken using a SpectraMax Genmini EM (Molecular Devices, Sunnyvale, Calif., United States). The CellTiter-Blue® cell viability assay measures the ability of the cells in culture to reduce resazurin to resorufin, the fluorescence signal intensity being directly proportional to the number of live cells.

MV4-11 = test: Cell viability assay (CellTiter-Blue), MV4-11; type: cell-based; details: Homo sapiens
Description: as §1, §2

MOLM-13 = test: Cell viability assay (CellTiter-Blue), MOLM-13; type: cell-based; details: Homo sapiens
Description: as §1, §2

Pim-1 = target: T1, Pim-1 (Homo sapiens, UniProt P11309); test: TR-FRET assay, Pim-1 kinase (phosphorylation of Bad Ser112); type: biochemical; details: TR-FRET; ATP 40 μM; read-out: IC50 Pim1
T1 construct: His6-labelled recombinant full-length human Pim-1, Pim-2 or Pim-3 protein; His6; made in house
T1 sequence (P11309 whole entry): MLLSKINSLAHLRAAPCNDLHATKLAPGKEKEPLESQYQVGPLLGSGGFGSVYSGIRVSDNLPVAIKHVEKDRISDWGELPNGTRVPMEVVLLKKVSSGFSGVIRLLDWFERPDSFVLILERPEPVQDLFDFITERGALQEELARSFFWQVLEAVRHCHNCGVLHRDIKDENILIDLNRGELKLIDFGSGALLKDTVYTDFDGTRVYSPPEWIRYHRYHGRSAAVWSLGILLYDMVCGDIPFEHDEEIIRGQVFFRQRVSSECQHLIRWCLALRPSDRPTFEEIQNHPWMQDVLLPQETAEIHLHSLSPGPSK
Procedure, shortened: (§3)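 Recombinant His6-tagged full-length human Pim-1, Pim-2 or Pim-3 phosphorylates His6-tagged full-length human Bad at 40 μM ATP (apparent KM). Phospho-Ser112 is detected by TR-FRET between Eu-labelled anti-phosphoBad and APC-labelled anti-His6 (665/615 nm ratio); 10-point duplicate series, top typically 30 μM, IC50 from 4-parameter logistic fit.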

Pim-2 = target: T2, Pim-2 (Homo sapiens, UniProt Q9P1W9); test: TR-FRET assay, Pim-2 kinase (phosphorylation of Bad Ser112); type: biochemical; details: TR-FRET; ATP 40 μM; read-out: IC50 Pim2
T2 construct: His6-labelled recombinant full-length human Pim-1, Pim-2 or Pim-3 protein; His6; made in house
T2 sequence (Q9P1W9 whole entry): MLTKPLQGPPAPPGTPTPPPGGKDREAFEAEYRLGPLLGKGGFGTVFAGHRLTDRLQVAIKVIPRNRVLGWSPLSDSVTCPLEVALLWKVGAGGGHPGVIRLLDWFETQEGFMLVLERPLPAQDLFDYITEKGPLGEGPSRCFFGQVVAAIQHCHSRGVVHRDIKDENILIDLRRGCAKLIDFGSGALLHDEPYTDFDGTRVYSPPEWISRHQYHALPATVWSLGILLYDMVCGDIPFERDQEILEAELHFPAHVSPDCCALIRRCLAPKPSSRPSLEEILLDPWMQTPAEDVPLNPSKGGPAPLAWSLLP
Procedure, shortened: as §3

Pim-3 = target: T3, Pim-3 (Homo sapiens, UniProt Q86V86); test: TR-FRET assay, Pim-3 kinase (phosphorylation of Bad Ser112); type: biochemical; details: TR-FRET; ATP 40 μM; read-out: IC50 Pim3
T3 construct: His6-labelled recombinant full-length human Pim-1, Pim-2 or Pim-3 protein; His6; made in house
Procedure, shortened: as §3

PLK1 = PLK1 (Homo sapiens, UniProt P53350); test: PLK1 biochemical inhibition
PLK1, sequence (P53350 whole entry, species assumed): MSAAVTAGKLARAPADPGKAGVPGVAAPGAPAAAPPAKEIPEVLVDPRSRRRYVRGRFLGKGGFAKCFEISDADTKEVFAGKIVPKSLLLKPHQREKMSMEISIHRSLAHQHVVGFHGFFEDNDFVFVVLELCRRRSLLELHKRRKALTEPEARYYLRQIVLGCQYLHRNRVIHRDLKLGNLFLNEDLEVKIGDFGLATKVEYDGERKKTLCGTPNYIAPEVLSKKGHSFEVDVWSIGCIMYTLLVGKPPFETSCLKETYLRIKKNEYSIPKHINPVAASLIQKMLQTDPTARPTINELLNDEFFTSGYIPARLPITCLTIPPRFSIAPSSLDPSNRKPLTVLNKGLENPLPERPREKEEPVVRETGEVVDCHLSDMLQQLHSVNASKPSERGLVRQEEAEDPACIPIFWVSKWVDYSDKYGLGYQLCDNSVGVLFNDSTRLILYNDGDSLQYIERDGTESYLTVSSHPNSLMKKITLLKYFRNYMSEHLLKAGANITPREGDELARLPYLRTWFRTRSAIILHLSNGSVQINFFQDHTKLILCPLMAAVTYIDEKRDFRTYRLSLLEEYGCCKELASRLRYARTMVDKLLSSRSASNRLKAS

[1] = EOL-1 cells, cell proliferation/viability
[2] = MV4-11 cells, cell proliferation/viability, read-out: IC50 MV4-11 μM (myeloma)
[3] = MOLM-13 cells, cell proliferation/viability, read-out: IC50 MOLM-13 μM (myeloma)

IC50 (MV4-11; [2]) | IC50 (MOLM-13; [3]) | IC50 (Pim-1) | IC50 (Pim-2) | IC50 (Pim-3) | IC50 (PLK1) | SMILES | EC50 (EOL-1; [1]) | EC50 (EOL-1) | IC50 (MV4-11; MV4-11, read-out: IC50 MV4-11 μM (myeloma)) | IC50 (MOLM-13; MOLM-13, read-out: IC50 MOLM-13 μM (myeloma))
0.001 to 0.1 µM | 0.001 to 0.1 µM | – | – | – | – | CCN1CCCC1Cn1cc(-c2cnc3[nH]c4cnc(-c5cccnc5)cc4c3c2)cn1 (stereo not drawn) [Example 128, 3-{1-[(1-ethylpyrrolidin-2-yl)methyl]-1H-pyrazol-4-yl}-6-(pyrid-3-yl)-9H-pyrrolo[2,3-b:5,4-c′]dipyridine] | 0.001 to 0.1 µM | – | – | –
0.1 to 1 µM | 0.1 to 1 µM | 0.001 to 0.1 µM | 0.1 to 1 µM | 0.001 to 0.1 µM | 0.001 to 0.1 µM | Fc1cnc2[nH]c3cnc(-c4cccnc4)cc3c2c1-c1ccc(OCCN2CCCC2)cc1 [Example 97, 3-fluoro-6-(pyrid-3-yl)-4-{4-[2-(pyrrolidin-1-yl)ethoxy]phenyl}-9H-pyrrolo[2,3-b:5,4-c′]dipyridine] | 0.1 to 1 µM | – | – | –
0.001 to 0.1 µM | – | 0.001 to 0.1 µM | 0.1 to 1 µM | 0.001 to 0.1 µM | 1 to 5 µM | CCN(CC)CCCn1cc(-c2cnc3[nH]c4cnc(-c5cccnc5)cc4c3c2)cn1 [Example 127, N,N-diethyl-3-{4-[6-(pyrid-3-yl)-9H-pyrrolo-[2,3-b:5,4-c′]-dipyrid-3-yl]-1H-pyrazol-1-yl}-propan-l-amine] | 0.001 to 0.1 µM | – | – | –
0.1 to 1 µM | 0.1 to 1 µM | 0.001 to 0.1 µM | 0.1 to 1 µM | 0.001 to 0.1 µM | 0.001 to 0.1 µM | CCN(CC)CCOc1ccc(-c2c(F)cnc3[nH]c4cnc(-c5cccnc5)cc4c23)cc1 [Example 100, N,N-diethyl-2-{4-[3-fluoro-6-(pyrid-3-yl)-9H-pyrrolo[2,3-b:5,4-c′]dipyrid-4-yl]-phenoxy}ethanamine] | 0.001 to 0.1 µM | – | – | –
0.001 to 0.1 µM | 0.001 to 0.1 µM | 0.001 to 0.1 µM | 0.1 to 1 µM | 0.001 to 0.1 µM | 1 to 5 µM | CCN(CC)CCn1cc(-c2cnc3[nH]c4cnc(-c5cccnc5)cc4c3c2)cn1 [Example 123, N,N-diethyl-2-{4-[6-(pyrid-3-yl)-9H-pyrrolo-[2,3-b:5,4-c′]-dipyrid-3-yl]-1H-pyrazol-1-yl}-ethanamine] | 0.001 to 0.1 µM | – | – | –
0.1 to 1 µM | 0.1 to 1 µM | 0.001 to 0.1 µM | 0.1 to 1 µM | 0.001 to 0.1 µM | 0.1 to 1 µM | COc1cnc2[nH]c3cnc(-c4cccnc4)cc3c2c1 [Example 7, 3-methoxy-6-(pyrid-3-yl)-9H-pyrrolo-[2,3-b:5,4-c′]-dipyridine] | 0.1 to 1 µM | – | – | –
1 to 5 µM | 0.1 to 1 µM | 0.001 to 0.1 µM | 0.1 to 1 µM | 0.1 to 1 µM | – | Fc1cnc2[nH]c3cnc(-c4cccnc4)cc3c2c1N1CCOCC1 [Example 33, 3-fluoro-4-(morpholin-4-yl)-6-(pyrid-3-yl)-9H-pyrrolo[2,3-b:5,4-c′]-dipyridine] | 0.1 to 1 µM | – | – | –
0.1 to 1 µM | – | 0.001 to 0.1 µM | 0.1 to 1 µM | 0.001 to 0.1 µM | 1 to 5 µM | COc1cnc2[nH]c3cnc(-c4cnn(C)c4)cc3c2c1 [Example 163, 3-methoxy-6-(1-methyl-1H-pyrazol-4-yl)-9H-pyrrolo[2,3-b:5,4-c′]dipyridine] | 0.1 to 1 µM | – | – | –
0.001 to 0.1 µM | 0.1 to 1 µM | 0.001 to 0.1 µM | > 5 µM | 0.001 to 0.1 µM | 0.1 to 1 µM | Cc1n[nH]c(C)c1-c1cnc2[nH]c3cnc(-c4cccnc4)cc3c2c1 [Example 120, 3-(3,5-dimethyl-1H-pyrazol-4-yl)-6-(pyrid-3-yl)-9H-pyrrolo[2,3-b:5,4-c′]-dipyridine] | 0.001 to 0.1 µM | – | – | –
0.1 to 1 µM | 0.1 to 1 µM | 0.001 to 0.1 µM | 0.001 to 0.1 µM | 0.001 to 0.1 µM | 0.1 to 1 µM | CC(COc1ccc(-c2c(F)cnc3[nH]c4cnc(-c5cccnc5)cc4c23)cc1)CN(C)C (stereo not drawn) [Example 98, 3-{4-[3-fluoro-6-(pyrid-3-yl)-9H-pyrrolo[2,3-b:5,4-c′]dipyrid-4-yl]phenoxy}-N,N,2-trimethylpropan-1-amine] | 0.001 to 0.1 µM | – | – | –
0.001 to 0.1 µM | – | 0.001 to 0.1 µM | 0.1 to 1 µM | 0.001 to 0.1 µM | 1 to 5 µM | CC(C)N1CCN(c2ccc(-c3cnc4[nH]c5cnc(-c6cccnc6)cc5c4c3)cc2)CC1 [Example 122, 3-{4-[4-(propan-2-yl)piperazin-1-yl]phenyl}-6-(pyrid-3-yl)-9H-pyrrolo[2,3-b:5,4-c′]-dipyridine] | 0.001 to 0.1 µM | – | – | –
0.001 to 0.1 µM | – | 0.001 to 0.1 µM | 0.001 to 0.1 µM | 0.001 to 0.1 µM | 0.1 to 1 µM | CN(C)CCCN(c1ccc(-c2c(F)cnc3[nH]c4cnc(-c5cccnc5)cc4c23)cc1)S(C)(=O)=O [Example 49, N-[3-(dimethylamino)propyl]-N-{4-[3-fluoro-6-(pyrid-3-yl)-9H-pyrrolo[2,3-b:5,4-c′]-dipyrid-4-yl]phenyl}methanesulfonamide] | 0.001 to 0.1 µM | – | – | –
0.001 to 0.1 µM | 0.001 to 0.1 µM | 0.001 to 0.1 µM | 0.1 to 1 µM | 0.001 to 0.1 µM | – | c1cncc(-c2cc3c(cn2)[nH]c2ncc(-c4ccc(N5CCNCC5)cc4)cc23)c1 [Example 130, 3-[4-(piperazin-1-yl)phenyl]-6-(pyrid-3-yl)-9H-pyrrolo[2,3-b:5,4-c′]dipyridine] | 0.001 to 0.1 µM | – | – | –
0.1 to 1 µM | 0.1 to 1 µM | 0.001 to 0.1 µM | 0.1 to 1 µM | 0.001 to 0.1 µM | 0.1 to 1 µM | CN(C)CCOc1ccc(-c2c(F)cnc3[nH]c4cnc(-c5cccnc5)cc4c23)cc1 [Example 96, 2-{4-[3-fluoro-6-(pyrid-3-yl)-9H-pyrrolo[2,3-b:5,4-c′]dipyrid-4-yl]-phenoxy}-N,N-dimethylethanamine] | 0.001 to 0.1 µM | – | – | –
0.1 to 1 µM | 0.1 to 1 µM | 0.001 to 0.1 µM | 0.1 to 1 µM | 0.001 to 0.1 µM | 0.1 to 1 µM | CCN(CC)C(=O)c1cccc(-c2cnc3[nH]c4cnc(-c5cccnc5)cc4c3c2)c1 [Example 119, N,N-diethyl-3-[6-(pyrid-3-yl)-9H-pyrrolo[2,3-b:5,4-c′]dipyrid-3-yl]-benzamide] | 0.001 to 0.1 µM | – | – | –
1 to 5 µM | – | 0.001 to 0.1 µM | 1 to 5 µM | 0.001 to 0.1 µM | 0.1 to 1 µM | CCN1CCN(C(C)(C)C#Cc2c(F)cnc3[nH]c4cnc(-c5cccnc5)cc4c23)CC1 [Example 92, 4-[3-(4-ethylpiperazin-1-yl)-3-methylbut-1-yn-1-yl]-3-fluoro-6-(pyrid-3-yl)-9H-pyrrolo-[2,3-b:5,4-c′]dipyridine] | 0.1 to 1 µM | – | – | –

SMILES | IC50 (MV4-11; [2]) | IC50 (MOLM-13; [3]) | IC50 (Pim-1) | IC50 (Pim-2) | IC50 (Pim-3) | IC50 (PLK1) | EC50 (EOL-1; [1]) | EC50 (EOL-1) | IC50 (MV4-11; MV4-11, read-out: IC50 MV4-11 μM (myeloma)) | IC50 (MOLM-13; MOLM-13, read-out: IC50 MOLM-13 μM (myeloma))
CN(C)CCCOc1ccc(-c2c(F)cnc3[nH]c4cnc(-c5cccnc5)cc4c23)cc1 [Example 94, 3-{-4-[3-fluoro-6-(pyrid-3-yl)-9H-pyrrolo[2,3-b:5,4-c′]dipyrid-4-yl]phenoxy}-N,N-dimethylpropan-1-amine] | – | – | 0.001 to 0.1 µM | 0.1 to 1 µM | 0.001 to 0.1 µM | 0.001 to 0.1 µM | – | 0.001 to 0.1 µM | 0.001 to 0.1 µM | 0.1 to 1 µM
